{"source": "patent US20250129344A1", "about": "“MODIFIED GLUTAMATE DEHYDROGENASE AND APPLICATION THEREOF” (Hunan Lier Biotech Co., Ltd., priority 2021, published 2025)", "assay_in_all_cases": "Dynamic properties (Michaelis-Menten) of BvGluDH mutant, PPO reductive amination", "format_in_all_cases": "biochemical", "settings_in_all_cases": "PPO 5-100 mM, NADPH 0.15 mM, NH4Cl 50 mM, PBS pH 7.5, 30° C., diluted crude enzyme, 340 nm", "key": {"[1]": {"tested_on": "Bacillus velezensis glutamate dehydrogenase (BvGluDH, SEQ ID NO: 1) variant A175G, SEQ ID NO: 3", "method": "(§1) A plurality of reaction systems (200 μL) comprising PBS of 100 mM pH 7.5 (pH was adjusted with aqueous ammonia solution), NADPH (reductive) of 0.15 mM, NH4Cl of 50 mM, diluted (500 folds) crude enzyme solution of 10% volume and the substrate PPO at various concentrations (5-100 mM) were formulated on a 96-well plate. The intensity of the UV absorption at 340 nm was detected at 30° C., and the rate of change in absorption over time (mA/min) was recorded. The obtained parameters were plugged into Michaelis-Menten equation, in which the reaction velocity was calculated with the rate of change in absorption.\n(§2) The mutants were prepared with the coding nucleic acid of BvGluDH (SEQ ID NO: 1) as the template, and the enzyme activities and the dynamic parameters Vmax and Km were measured, according to the method of Example 1. The resulted mutants and the enzyme activities and the dynamic parameters thereof are shown in Table 1, and the relative enzyme activity means the percentage of the enzyme activity of the mutant to the enzyme activity of the mutant of SEQ ID NO: 3."}, "[2]": {"tested_on": "Bacillus velezensis glutamate dehydrogenase (BvGluDH, SEQ ID NO: 1) variant A175G-G181K, SEQ ID NO: 9", "method": "as §1, §2"}, "[3]": {"tested_on": "Bacillus velezensis glutamate dehydrogenase (BvGluDH, SEQ ID NO: 1) variant A175G-G181R, SEQ ID NO: 10", "method": "as §1, §2"}, "[4]": {"tested_on": "Bacillus velezensis glutamate dehydrogenase (BvGluDH, SEQ ID NO: 1) variant A175G-I133V, SEQ ID NO: 6", "method": "as §1, §2"}, "[5]": {"tested_on": "Bacillus velezensis glutamate dehydrogenase (BvGluDH, SEQ ID NO: 1) variant A175G-L104C, SEQ ID NO: 4", "method": "as §1, §2"}, "[6]": {"tested_on": "Bacillus velezensis glutamate dehydrogenase (BvGluDH, SEQ ID NO: 1) variant A175G-P132L, SEQ ID NO: 5", "method": "as §1, §2"}, "[7]": {"tested_on": "Bacillus velezensis glutamate dehydrogenase (BvGluDH, SEQ ID NO: 1) variant A175G-V173G, SEQ ID NO: 8", "method": "as §1, §2"}, "[8]": {"tested_on": "Bacillus velezensis glutamate dehydrogenase (BvGluDH, SEQ ID NO: 1) variant A175G-V173G-A182R, SEQ ID NO: 21", "method": "as §1, §2"}, "[9]": {"tested_on": "Bacillus velezensis glutamate dehydrogenase (BvGluDH, SEQ ID NO: 1) variant A175G-V173S, SEQ ID NO: 7", "method": "as §1, §2"}}}
{"smiles": "CP(=O)(O)CCC(=O)C(=O)O", "note": "[PPO, 2-carbonyl-4-(hydroxymethylphosphono) butyric acid]", "values": [{"measurement": "Km", "setting": "[1]", "value": 73, "unit": "mM"}, {"measurement": "Vmax", "setting": "[1]", "value": 60, "unit": "mA/min"}, {"measurement": "Km", "setting": "[2]", "value": 80, "unit": "mM"}, {"measurement": "Vmax", "setting": "[2]", "value": 70, "unit": "mA/min"}, {"measurement": "Km", "setting": "[3]", "value": 84, "unit": "mM"}, {"measurement": "Vmax", "setting": "[3]", "value": 77, "unit": "mA/min"}, {"measurement": "Km", "setting": "[4]", "value": 43, "unit": "mM"}, {"measurement": "Vmax", "setting": "[4]", "value": 59, "unit": "mA/min"}, {"measurement": "Km", "setting": "[5]", "value": 34, "unit": "mM"}, {"measurement": "Vmax", "setting": "[5]", "value": 60, "unit": "mA/min"}, {"measurement": "Km", "setting": "[6]", "value": 32, "unit": "mM"}, {"measurement": "Vmax", "setting": "[6]", "value": 56, "unit": "mA/min"}, {"measurement": "Km", "setting": "[7]", "value": 53, "unit": "mM"}, {"measurement": "Vmax", "setting": "[7]", "value": 80, "unit": "mA/min"}, {"measurement": "Km", "setting": "[8]", "value": 23, "unit": "mM"}, {"measurement": "Vmax", "setting": "[8]", "value": 71, "unit": "mA/min"}, {"measurement": "Km", "setting": "[9]", "value": 52, "unit": "mM"}, {"measurement": "Vmax", "setting": "[9]", "value": 79, "unit": "mA/min"}]}
